#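 Each compound was tested at five concentrations against cells in 96-well plates for 48 hours. GI50: concentration for 50% inhibition of growth. The concentration for full growth arrest is given as TGI.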
# How the values were obtained:
# Assay in all cases: NCI tumour cell line growth inhibition, 48 h
# [1] = test system: M19-MEL melanoma
# [2] = test system: SK-MEL-28 melanoma
# [3] = test system: KM20L2 colon
# [4] = test system: SK-MEL-5 melanoma
# [5] = test system: SNB-19 CNS
# [6] = test system: NCI-H522 lung
# [7] = test system: U251 CNS
# [8] = test system: DU-145 prostate
# [9] = test system: BT-549 breast
SMILES,TGI [1] [µM],TGI [2] [µM],TGI [3] [µM],TGI [4] [µM],TGI [5] [µM],TGI [6] [µM],TGI [7] [µM],TGI [8] [µM],TGI [9] [µM],GI50 [8] [µM],GI50 [2] [µM],GI50 [9] [µM],GI50 [4] [µM],GI50 [5] [µM],GI50 [6] [µM],GI50 [7] [µM]
Cc1ccc(S(=O)(=O)NC(=O)NC23CC4CC(CC(F)(C4)C2)C3)cc1,> 100,> 100,> 100,> 100,> 100,> 100,> 100,–,–,–,–,–,–,–,–,–
CC(=O)OC1CC2C(C)(C)C(=O)C=C[C@]2(C)C2CCC3(C)C(c4ccoc4)C(=O)[C@H]4O[C@]43[C@]12C (some centres undefined),55.2,32.7,–,32.9,67.5,36.9,32.9,–,–,–,–,–,–,–,–,–
NC(=O)N/N=C/C(/C=N/NC(N)=O)[N+](=O)[O-],> 100,> 100,> 100,–,> 100,> 100,–,–,–,–,–,–,–,–,–,–
CCCCCC(=O)c1ccc2[nH]c3c(C)cc([N+](=O)[O-])c(C)c3c2c1,> 100,> 100,–,> 100,> 100,> 100,–,–,–,–,–,–,–,–,–,–
Cc1c(C(=O)c2ccccc2C(=O)O)c2ccccc2n1C,> 100,> 100,> 100,> 100,–,–,> 100,–,–,–,–,–,–,–,–,–
CN(CN1C(=O)C2Cc3ccccc3CN2C1=O)c1ccccn1 (centres undefined),> 100,> 100,> 100,> 100,> 100,> 100,> 100,–,–,–,–,–,–,–,–,–
O=C(O)/C(=C/c1c(O)ccc2ccccc12)c1csc(-c2nc(/C(=C\c3c(O)ccc4ccccc34)C(=O)O)cs2)n1,19.9,32.1,50.6,37.1,43,–,30.3,–,–,–,–,–,–,–,–,–
C[C@]1(CO)[C@H]2CC[C@@]34C=C[C@@](CO)(CC[C@H]3[C@]2(C)CC[C@H]1O)C4,–,> 100,–,32.3,> 100,> 100,> 100,> 100,> 100,–,–,–,–,–,–,–
CN1c2ccccc2N(C)C2C1N(C)c1ccccc1N2C (centres undefined),32.7,17.6,> 100,18.4,80.2,26,> 100,–,–,–,–,–,–,–,–,–
CC[C@@]1(O)C(=O)NCc2c1cc1n(c2=O)Cc2cc3c(N)cccc3nc2-1,–,> 77.7,–,17.3,> 50.7,9.71,> 46.8,17.9,> 100,1.04,8.8,17.8,1.23,2.93,0.176,2
O=C(NCCCNc1cc(-c2cn(-c3ccccc3)nc2-c2cccc(O)c2)ccn1)c1ccccc1,–,6.08,–,3.12,> 100,17.1,21,96.5,9.47,5.29,2.18,2.72,1.49,7.75,3.06,4.12
Nc1ccc2c(c1)NCCN2,–,> 100,–,46.8,> 100,> 100,> 100,> 100,> 100,–,–,–,–,–,–,–
OCC1OC(n2ccc3c(NO)ncnc32)C(O)C1O (centres undefined),–,0.873,–,0.325,–,0.718,> 20.2,0.702,0.764,0.111,0.231,0.193,0.171,0.263,0.188,0.168
N#Cc1cnc2cc(OC[C@@H](O)CO)c(NC(=O)CC3CSSC3)cc2c1Nc1ccc(OCc2cccc(F)c2)c(Cl)c1,–,0.136,–,1.43,1.18,0.973,1.59,0.398,0.523,0.131,0.0632,0.155,0.743,0.381,0.336,0.777
Cc1nc2c(n1C(C)(C)C)C(=O)c1ccccc1C2=O,76.5,> 100,> 100,> 100,> 100,> 100,> 100,–,–,–,–,–,–,–,–,–
CC(C)c1ccc(/C(C(=O)O)=C(\O)C(=O)O)cc1,–,> 100,–,> 100,> 100,> 100,> 100,> 100,> 100,–,–,–,–,–,–,–
C=C1C(=O)O[C@H]2[C@H]1CC/C(COC(=O)NCc1ccc(Cn3c(=O)sn(CCCCl)c3=O)cc1)=C\CC[C@@]1(C)O[C@@H]21,–,3.16,–,14.1,17.4,1.94,17.2,3.15,2.91,1.64,1.69,1.48,3.72,4.84,0.538,5.05
COc1cc(/C=C\[N+](=O)[O-])ccc1OCc1ccccc1,–,4.5,–,3.05,8.41,6.62,3.01,3.52,3.3,1.8,2.08,1.58,1.4,2.64,2.04,1.55

# — PubChem BioAssay (NCI)
